Eleven compounds from patent US6350759B1, “Dihydro- and tetrahydro-quinoline compounds” (Adir et Compagnie, priority 1998, dated 2002) can be followed below.

One data set has as its system Wistar rat. Description: Delayed hippocampal neurodegeneracy induced by kainic acid in the Wistar rat. The data set is classed as in vivo. Particulars: 150 mg/kg i.p. 30 minutes before kainic acid 12 mg/kg s.c.; count 7 days later. Here is the method: This method is frequently used as a model of temporal epilepsy in humans (Ben-Ari, Neurosci., 14, 375-403, 1985).
Male Wistar rats (180-220 g, CERJ) are given kainic acid (12 mg/kg) by the subcutaneous route. The animals are sacrificed by decapitation 7 days later. The brains are removed and then cut, in the frozen state, into frontal sections of 7 μm, which are stained (hematoxylin-eosin). Hippocampal neurone death is assessed by a neurone count at the level of the CA3 layer of the hippocampus. The results are expressed as a percentage of viable neurones in the CA3 layer compared with the total neurone population.
`CCOc1ccc2c(c1)C=CC1(CCCCC1)N2.Cl` [Example 1, 6-Ethoxy-1,2-dihydroquinoline-2-spirocyclohexane hydrochloride]: the “reduction in neurone death (CA3 layer), factor” value is on record as 3.

Another data set has as its system Wistar rat. Description: Neuroprotection in transient and global cerebral ischaemia in the Wistar rat. Type of data set: in vivo. To be noted: administration 30 minutes before the start of the ischaemia; count 7 days after. How it is done:
This animal model (Pulsinelli and Brierley, Stroke 10, 267-272, 1979), is commonly used for the detection of central anti-ischaemic agents (Buchan et al., Neurosci. Lett., 132(2), 255-258, 1991).
Under pentobarbital anaesthesia, the vertebral arteries of male Wistar rats (280-320 g, Charles River) are permanently occluded by electrocoagulation and carotid ligatures are placed around each common carotid. 24 hours later, ischaemia is brought about for […] by clamping the carotids with the carotid ligatures. This ischaemic episode causes delayed neurone death at the level of the pyramidal cells of the hippocampus. Neurone death is measured by a neurone count on sections of brain (7 μm, staining: hematoxylin-eosin) of rats sacrificed 7 days after the ischaemic episode. The results are expressed as a percentage of viable hippocampal neurones compared with the total hippocampal neurone population. […] That is true especially of the compound of Example 1, which, on administration 30 minutes before the start of the ischaemia, induces a reduction by a factor of 2.7.
Take `CCOc1ccc2c(c1)C=CC1(CCCCC1)N2.Cl` [Example 1, 6-Ethoxy-1,2-dihydroquinoline-2-spirocyclohexane hydrochloride]: the “reduction of hippocampal neurone death, factor” value is given as 2.7.

A further data set concerns C57BL/6 mouse. The experiment in a line: Antagonism of dopaminergic striatonigral dysfunctions induced by methamphetamine in the C57BL/6 mouse. To be noted: dose 2×150 mg/kg i.p. The data set is classed as in vivo. Here is the method:
Male mice (C57BL/6 20-25 g) are given four injections of d-methamphetamine (5 mg/kg base, i.p.) at intervals of 2 hours (Sonsalla and Heikkila, Prog. Neuro-Psychopharmacolo. & Biol. Psychiat., 12, 345-354, 1988) and the anti-oxidant being tested is administered (i.p.) 30 minutes before the first and third injections of d-methamphetamine (Yamamoto and Zhu, J. Pharmacol. Exp. Ther. 287, 107-114, 1988). The rectal temperature is monitored throughout the duration of the experiment. The animals are sacrificed by decapitation 72 hours after the last injection of d-methamphetamine. The brains are rapidly extracted, and the striata are removed, frozen in liquid nitrogen and weighed. The striata are homogenised by sonication in 20 volumes of 0.1N HClO4, and the homogenate is centrifuged at 15000 g for 20 minutes at 4° C. The supernatants are collected for assaying the striata tissue levels of dopamine by means of HPLC coupled with coulometric detection (Bonhomme et al., Brain Res., 675, 215-233, 1995). The results are expressed as μg of dopamine/g of tissue. […] That is true especially of the compound of Example 1 administered in a dose of 2×150 mg/kg i.p.
Regarding `CCOc1ccc2c(c1)C=CC1(CCCCC1)N2.Cl` [Example 1, 6-Ethoxy-1,2-dihydroquinoline-2-spirocyclohexane hydrochloride], the “effect on dopaminergic deficit induced by methamphetamine (striatal dopamine)” value is “oppose the dopaminergic deficit”.

Tested on in the next data set: not given
Assay: not given
Settings: not given
For the compound `CCOc1c(C)c(C)c2c(c1C)CCC1(CCCCC1)N2.Cl`, the melting point was 192 to 198 °C (dec.). In turn, `CC(C)(C)C(=O)Oc1ccc2c(c1)C=CC1(CCCCC1)N2.Cl` came in with a melting point of 180 °C. For the compound `CCOc1c(C)c(C)c2c(c1C)C=CC1(CCCCC1)N2.Cl`, the melting point was 158 to 161 °C. Turning to `COc1ccc2c(c1)C=CC1(CCCCC1)N2.Cl`, the melting point was 191 °C. The same measure, in the same setting: for `CCOc1c(C)cc2c(c1C)C=CC1(CCCCC1)N2.Cl` the value was 175 to 180 °C.

The compound `CCOc1c(C(C)C)cc2c(c1C(C)C)CCC(C)(C)N2.Cl` yielded a melting point of 227 to 230 °C. In turn, `C1=CC2(CCCCC2)Nc2ccc(Oc3ccccc3)cc21.Cl` yielded a melting point of 176 °C. On the same count and under the same terms, for `CC(C)(C)Oc1ccc2c(c1)C=CC1(CCCCC1)N2.Cl` the value was 132 °C. The compound `CCOc1cccc2c1NC1(C=C2)CCCCC1.Cl` came in with a melting point of 154 to 155 °C. Take `CCOc1c(C(C)C)cc2c(c1C(C)C)C=CC1(CCCCC1)N2.Cl`: the melting point was 166 to 169 °C (dec.).
